# US20090105477A1, “Quinazoline Protein Tyrosine Phosphatase Inhibitors” (priority 2004, published 2009)
# Molecular target: T1, Human PTP1B (1-321) (Homo sapiens, UniProt P18031)
# T1 construct: Human PTP1B (1-321) was cloned from a human cDNA library; made in house; host or cells: E. coli
# T1 sequence (P18031 1-321): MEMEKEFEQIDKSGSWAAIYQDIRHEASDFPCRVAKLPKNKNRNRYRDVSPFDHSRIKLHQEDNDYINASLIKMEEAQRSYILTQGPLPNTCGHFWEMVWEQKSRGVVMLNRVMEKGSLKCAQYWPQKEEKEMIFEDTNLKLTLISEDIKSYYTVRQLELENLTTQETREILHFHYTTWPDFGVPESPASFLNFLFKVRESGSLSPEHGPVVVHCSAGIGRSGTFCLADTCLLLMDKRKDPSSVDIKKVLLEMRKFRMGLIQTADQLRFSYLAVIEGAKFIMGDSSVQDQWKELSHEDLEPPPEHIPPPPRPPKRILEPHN
# Assay: In Vitro Inhibition of PTP1B (PTPase assay)
# Assay type: biochemical
# Conditions: PTP1B inhibitory activity, procedures of Example 150
# Description: Human PTP1B (1-321) was cloned from a human cDNA library using conventional molecular biology techniques. The cDNA sequence was identical to the published human PTP1B sequence (Accession number M33689). The protein was expressed and purified from E. coli as described by Barford D. et. al J. Mol Biol (1994) 239, 726-730.
# The measurement of PTPase activity was carried out using one of two methods:
# The first method for the measurement of PTP1B inhibitory activity a tyrosine phosphorylated peptide based on the amino acid sequence of insulin receptor tyrosine autophosphorylation site 1146 (TRDI(pY)E) was used as substrate. The reaction conditions were as follows:
# PTP1B (0.5-2 nM) was incubated with compound for 15 min in buffer containing 37.5 mM Bis-Tris buffer pH 6.2, 140 mMNaCl, 0.05% BSA and 2 mM DTT. The reaction was started by the addition of 50 μM substrate. After 20 min at room temperature (22-25° C.), the reaction was stopped with KOH and the amount of free phosphate measured using Malachite Green as previously described (Harder et al. 1994 Biochem J. 298; 395).
# The second method was used for the measurement of general PTPase inhibitory activity across a panel of PTPases the substrate (6,8-difluoro-4-methylumbelliferyl phosphate (DiFMUP; from Molecular Probes) was used at the Km for each enzyme. The buffer conditions were identical as in the Malachite Green assay. The reaction was stopped with KOH. In this case the dephosphoryated product becomes fluorescent and the fluorescense read (Excitiation: […]/Emmission: 460 nM).
row,SMILES,IC50
1,"CCS(=O)(=O)c1ccccc1-c1ccc2c(NC)nc(N)nc2c1 [Example 82, 7-(2-Ethanesulfonyl-phenyl)-N4-methyl-quinazoline-2,4-diamine]",1390 nM
2,"CCNc1nc(N)nc2cc(-c3c(C)cccc3C)ccc12 [Example 14, 7-(2,6-Dimethyl-phenyl)-N4-ethyl-quinazoline-2,4-diamine]",2480 nM
3,"Nc1nc(NCCO)c2ccc(-c3ccccc3C(F)(F)F)cc2n1 [Example 57, 2-[2-Amino-7-(2-trifluoromethyl-phenyl)-quinazolin-4-ylamino]-ethanol]",3340 nM
4,"CNc1nc(N)nc2cc(-c3ccccc3S(=O)(=O)N(C)C)ccc12 [Example 120, 2-(2-aAmino-4-methylamino-quinazolin-7-yl)-N,N-dimethyl-benzenesulfonamide]",1600 nM
5,"Cc1ccccc1-c1ccc2c(NCCO)nc(N)nc2c1 [Example 43, 2-(2-Amino-7-o-tolyl-quinazolin-4-ylamino)-ethanol]",6020 nM
6,"Cc1cccc(C)c1-c1ccc2c(N(C)C)nc(N)nc2c1 [Example 9, 7-(2,6-Dimethyl-phenyl)-N4,N4-dimethyl-quinazoline-2,4-diamine]",14000 nM
7,CCNS(=O)(=O)c1ccccc1-c1ccc2c(NC)nc(N)nc2c1 [Example 125],1890 nM
8,"Cc1cccc(C)c1-c1ccc2c(NCCO)nc(N)nc2c1 [Example 36, 2-[2-Amino-7-(2,6-dimethyl-phenyl)-quinazolin-4-ylamino]-ethanol]",3170 nM
9,"Nc1nc(NCCO)c2ccc(-c3ccccc3F)cc2n1 [Example 41, 2-[2-Amino-7-(2-fluoro-phenyl)-quinazolin-4-ylamino]-ethanol]",19000 nM
10,"CSc1ccccc1-c1ccc2c(NCCO)nc(N)nc2c1 [Example 75, 2-[2-Amino-7-(2-methylsulfanyl-phenyl)-quinazolin-4-ylamino]-ethanol]",4180 nM

# Next, values leading:
row,IC50,SMILES
1,4040 nM,"CNc1nc(N)nc2cc(-c3ccc(F)cc3C)ccc12 [Example 69, 7-(4-Fluoro-2-methyl-phenyl)-N4-methyl-quinazoline-2,4-diamine]"
2,1440 nM,"CNc1nc(N)nc2cc(-c3ccccc3S(C)(=O)=O)ccc12 [Example 72, 7-(2-Methanesulfonyl-phenyl)-N4-methyl-quinazoline-2,4-diamine]"
3,790 nM,"CNc1nc(N)nc2cc(-c3c(C)cccc3C)ccc12 [Example 8, 7-(2,6-Dimethyl-phenyl)-N4-methyl-quinazoline-2,4-diamine]"
4,1940 nM,"CNc1nc(N)nc2cc(-c3ccccc3S(=O)(=O)NC)ccc12 [Example 126, N-methyl-2-(2-amino-4-methylamino-quinazolin-7-yl)-benzenesulfonamide]"
5,1460 nM,"CNc1nc(N)nc2cc(-c3c(C)cccc3Cl)ccc12 [Example 89, 7-(2-Chloro-6-methyl-phenyl)-N4-methyl-quinazoline-2,4-diamine]"
6,3500 nM,"CNc1nc(N)nc2cc(-c3c(OC)cccc3OC)ccc12 [Example 21, 7-(2,6-Dimethoxy-phenyl)-N4-methyl-quinazoline-2,4-diamine]"
7,3150 nM,"CNc1nc(N)nc2cc(-c3ccccc3C)ccc12 [Example 6, N4-Methyl-7-o-tolyl-quinazoline-2,4-diamine]"
8,1110 nM,"CNc1nc(N)nc2cc(-c3c(Cl)cccc3Cl)ccc12 [Example 24, 7-(2,6-Dichloro-phenyl)-N4-methyl-quinazoline-2,4-diamine]"
9,1010 nM,"CNc1nc(N)nc2cc(-c3ccccc3SC)ccc12 [Example 58, N4-Methyl-7-(2-methylsulfanyl-phenyl)-quinazoline-2,4-diamine]"
10,2780 nM,"CNc1nc(N)nc2cc(-c3ccccc3[S+](C)[O-])ccc12 (stereo not drawn) [Example 71, 7-(2-Methanesulfinyl-phenyl)-N4-methyl-quinazoline-2,4-diamine]"

# System: not given
# Assay: not given
# Conditions: not given
row,melting point,SMILES
1,316 to 317 °C,"CNc1nc(N)nc2cc(-c3ccccc3S(=O)(=O)NC)ccc12 [Example 126, N-methyl-2-(2-amino-4-methylamino-quinazolin-7-yl)-benzenesulfonamide]"
